Reference: patent publication US8158810B2 (Gilead Sciences, Inc., priority 2006, dated 2012)
pIC50: −log10 of the molar value. “And” between values parts separate entries of the source, which are not always exact repeats. Equal values may be shown once.

What was measured:
Format in all cases: biochemical
[1] = target: T1, hALDH2 (recombinant human mitochondria ALDH) (Homo sapiens, UniProt P05091); test: ALDH2 inhibition assay; conditions: for hALDH2 inhibition at 1 μM: printed in the IC50 hALDH2 column
T1 sequence (P05091 18-517): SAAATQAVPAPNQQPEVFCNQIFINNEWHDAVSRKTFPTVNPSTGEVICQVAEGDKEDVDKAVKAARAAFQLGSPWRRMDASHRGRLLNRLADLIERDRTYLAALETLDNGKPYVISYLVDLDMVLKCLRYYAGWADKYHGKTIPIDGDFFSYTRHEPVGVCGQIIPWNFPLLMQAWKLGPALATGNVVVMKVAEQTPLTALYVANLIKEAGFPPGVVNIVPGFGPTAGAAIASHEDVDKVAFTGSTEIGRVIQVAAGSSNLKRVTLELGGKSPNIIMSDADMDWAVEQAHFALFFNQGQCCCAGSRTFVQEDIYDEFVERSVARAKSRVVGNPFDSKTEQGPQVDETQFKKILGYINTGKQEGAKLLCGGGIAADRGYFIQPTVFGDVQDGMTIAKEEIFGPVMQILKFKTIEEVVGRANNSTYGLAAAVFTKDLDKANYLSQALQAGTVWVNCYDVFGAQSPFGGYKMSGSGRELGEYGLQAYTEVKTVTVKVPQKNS
Method: ALDH2 inhibition assays were performed in sodium phosphate buffer (50 mM, pH 7.4) containing 1.2 mM NAD^+ (Sigma N7004), 1 nM hALDH2 (recombinant human mitochondria ALDH), various concentrations of test compounds (from 0.03 nM to […]), and 0.15 mM freshly prepared formaldehyde solution (Ladd Research 20295). Reactions were initiated by the addition of formaldehyde and rates were recorded by monitoring NADH formation in a temperature controlled (25° C.) FluoroMax-2 Fluorimeter with excitation and emission wavelengths set at 340 and 460 nm, respectively. […] Normally, IC50 values were determined by fitting concentration-inhibition data to sigmoidal dose-response curves with two-floating parameters: IC50 and Hill coefficient. When tight binding situation was suspected, apparent Ki values were estimated by fitting dose-response data to Morrison's equation [Methods in Enzymology 63, 437-467, 1979].

hMAO-A = target: T2, hMAO-A (Homo sapiens, UniProt P21397); test: MAO-A inhibition assay; conditions: up to 10 μM; No = no inhibition; printed in the IC50 hMAO-A column
T2 construct: purchased Sigma M7316
T2 sequence (P21397 1-527): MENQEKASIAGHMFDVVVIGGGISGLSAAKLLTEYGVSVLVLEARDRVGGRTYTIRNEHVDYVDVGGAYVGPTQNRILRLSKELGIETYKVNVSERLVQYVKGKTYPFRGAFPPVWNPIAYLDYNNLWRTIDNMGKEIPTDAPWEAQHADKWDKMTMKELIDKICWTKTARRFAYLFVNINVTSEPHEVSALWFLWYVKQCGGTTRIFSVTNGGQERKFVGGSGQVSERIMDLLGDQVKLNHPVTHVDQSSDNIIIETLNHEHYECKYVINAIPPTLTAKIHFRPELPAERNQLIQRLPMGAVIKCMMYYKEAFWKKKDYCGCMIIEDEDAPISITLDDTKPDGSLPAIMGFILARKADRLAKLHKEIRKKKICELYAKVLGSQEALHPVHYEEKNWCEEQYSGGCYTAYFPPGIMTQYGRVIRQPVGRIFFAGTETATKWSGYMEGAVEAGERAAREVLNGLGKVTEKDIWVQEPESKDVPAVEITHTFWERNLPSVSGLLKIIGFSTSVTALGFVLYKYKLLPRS
Method: (§1) MAO-A (Sigma M7316) and MAO-B (Sigma M7441) inhibition assays were conducted in 96-well micro-plates according to the method described by Zhou et al. [Analytical Biochemistry 253, 169-174, 1997]. […] Reactions were initiated by the addition of a pre-mixed solution of tyramine, horseradish peroxidase and Amplex Red, and were allowed to proceed at 37° C. for 30 min. Enzyme activities were determined by measuring absorbance at 570 nm (SpectralMax Plate reader), absorbance of oxidized Amplex Red generated by this horseradish peroxidase-coupled reaction. Nonspecifically formed products were determined in the presence of 2 and 10 µM clorgyline and deprenyl for MAO-A and MAO-B, respectively. IC50 values were determined by fitting concentration-inhibition data to sigmoidal dose-response curves with two-floating parameters: IC50 and Hill coefficient.

hMAO-B = target: T3, hMAO-B (Homo sapiens, UniProt P27338); test: MAO-B inhibition assay; conditions: No = no inhibition; for inhibition at 10 µM / hMAO-B inhibition at 10 μM: printed in the IC50 hMAO-B column
T3 construct: purchased Sigma M7441
T3 sequence (P27338 1-520): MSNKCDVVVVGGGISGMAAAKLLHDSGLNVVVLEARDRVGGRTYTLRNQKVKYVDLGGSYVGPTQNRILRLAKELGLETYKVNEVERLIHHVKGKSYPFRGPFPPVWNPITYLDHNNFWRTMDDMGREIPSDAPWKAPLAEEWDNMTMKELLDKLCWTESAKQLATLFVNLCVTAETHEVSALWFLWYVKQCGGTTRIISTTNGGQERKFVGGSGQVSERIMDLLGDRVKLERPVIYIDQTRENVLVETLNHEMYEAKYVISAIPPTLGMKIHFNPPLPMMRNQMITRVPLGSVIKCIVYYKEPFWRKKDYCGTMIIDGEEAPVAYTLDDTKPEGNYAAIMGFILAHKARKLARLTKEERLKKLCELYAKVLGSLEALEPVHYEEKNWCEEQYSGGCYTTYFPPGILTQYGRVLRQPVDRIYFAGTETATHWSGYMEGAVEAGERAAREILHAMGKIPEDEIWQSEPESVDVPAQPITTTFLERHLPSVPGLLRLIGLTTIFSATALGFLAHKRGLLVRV
Method: as §1

| Compound | pIC50 [1] | hMAO-A inhibition up to 10 μM (hMAO-A) | inhibition at 10 µM (hMAO-B) [%] | hMAO-B inhibition at 10 μM (hMAO-B) | hALDH2 inhibition at 1 μM [1] [%] | hMAO-B inhibition up to 10 μM (hMAO-B; up to 10 μM) |
| --- | --- | --- | --- | --- | --- | --- |
| CC(Oc1ccc2c(=O)c(-c3ccc(O)cc3)coc2c1)c1nnc(-c2cccnc2)o1 (centres unmarked) | 7.77 and 7.82 | No | 30 | – | – | – |
| CC(Oc1ccc2c(=O)c(-c3ccc(O)cc3)coc2c1)c1noc(-c2cc(F)cc(C(F)(F)F)c2)n1 (centres unmarked) | 7.32 | No | 18 | – | – | – |
| 3-(4-hydroxyphenyl)-7-(2-{4-[3-(trifluoromethyl)phenyl]piperazinyl}ethoxy)chromen-4-one [PT-124] | 7.74 | No | – | 21% | – | – |
| 3-(4-hydroxyphenyl)-7-[(5-(4-pyridyl)(1,2,4-oxadiazol-3-yl))ethoxy]chromen-4-one [PT-117] | 7.01 | No | – | No | – | – |
| 3-(4-hydroxyphenyl)-7-[(6-pyrazolyl(3-pyridyl))methoxy]chromen-4-one [PT-52] | 8.00 | No | – | – | – | – |
| 7-{2-[4-(3-chlorophenyl)piperazinyl]ethoxy}-3-(4-hydroxyphenyl)chromen-4-one [PT-123] | 7.96 | No | – | – | – | – |
| N#Cc1cc(-c2coc3cc(OCc4noc(-c5cc(F)cc(C(F)(F)F)c5)n4)ccc3c2=O)ccc1F [PT-9, 2-fluoro-5-[7-({5-[5-fluoro-3-(trifluoromethyl)phenyl](1,2,4-oxadiazol-3-yl)}methoxy)-4-oxochromen-3-yl]benzenecarbonitrile] | – | – | – | – | 25 | – |
| CC(C)OC(=O)c1cccc(COc2ccc3c(=O)c(-c4ccc(O)cc4)coc3c2)c1 [PT-35, methylethyl 3-{[3-(4-hydroxyphenyl)-4-oxochromen-7-yloxy]methyl}benzoate] | 7.70 | No | – | – | – | No |
| O=c1c(-c2ccc(O)cc2)coc2cc(OCCc3n[nH]cc3-c3ccc(Cl)cc3)ccc12 [PT-51, 7-{2-[4-(4-chlorophenyl)pyrazolyl]ethoxy}-3-(4-hydroxyphenyl)chromen-4-one] | 6.96 | – | – | – | – | – |
| O=c1c(-c2ccc(O)cc2)coc2cc(OCCc3cccc(C(F)(F)F)c3)ccc12 [PT-59, 3-(4-hydroxyphenyl)-7-{[3-(trifluoromethyl)phenyl]ethoxy}chromen-4-one] | 6.17 | No | – | 24% | – | – |
| NC(=O)c1ccc(-c2coc3cc(OCc4noc(-c5cc(F)cc(C(F)(F)F)c5)n4)ccc3c2=O)cc1 [PT-72, 4-[7-({5-[3-fluoro-5-(trifluoromethyl)phenyl](1,2,4-oxadiazol-3-yl)}methoxy)-4-oxochromen-3-yl]benzamide] | – | No | – | No | – | – |
| O=c1c(-c2cn[nH]c2)coc2cc(OCc3noc(-c4cc(F)cc(C(F)(F)F)c4)n3)ccc12 [PT-75, 7-({5-[3-fluoro-5-(trifluoromethyl)phenyl](1,2,4-oxadiazol-3-yl)}methoxy)-3-(5-hydropyrazol-4-yl)chromen-4-one] | – | No | – | No | 14 | – |
| O=c1c(-c2ccc(O)cc2)coc2cc(OCc3nnc(-c4ccccc4Cl)o3)ccc12 [PT-80, 7-{[5-(2-chlorophenyl)(1,3,4-oxadiazol-2-yl)]methoxy}-3-(4-hydroxyphenyl)chromen-4-one] | – | No | – | No | – | – |
| O=C(COc1ccc2c(=O)c(-c3ccc(O)cc3)coc2c1)c1ccccc1C(F)(F)F [PT-85, 3(4-hydroxyphenyl)-7-{2-oxo-2-[2-(trifluoromethyl)phenyl]ethoxy}chromen-4-one] | – | No | – | No | – | – |
| O=c1c(-c2ccc(O)cc2)coc2cc(OCc3cncc(C(F)(F)F)c3)ccc12 [PT-94, 3-(4-hydroxyphenyl)-7-{[5-(trifluoromethyl)(3-pyridyl)]methoxy}chromen-4-one] | – | No | – | No | – | – |
| O=c1c(-c2ccc(O)cc2)coc2cc(OCCCc3n[nH]cc3-c3ccc(Cl)cc3)ccc12 [PT-106, 7-{3-[4-(4-chlorophenyl)pyrazolyl]propoxy}-3-(4-hydroxyphenyl)chromen-4-one] | 6.96 | – | – | – | – | – |
| O=c1c(-c2ccc(O)cc2)coc2cc(OCc3nnc(-c4cccnc4)o3)ccc12 [PT-110, 3-(4-hydroxyphenyl)-7-[(5-(3-pyridyl)(1,3,4-oxadiazol-2-yl))methoxy]chromen-4-one] | – | No | – | No | – | – |
| O=c1c(-c2ccc(O)cc2)coc2cc(OCc3nc(-c4cccnc4)no3)ccc12 [PT-114, 3-(4-hydroxyphenyl)-7-[(3-(3-pyridyl)(1,2,4-oxadiazol-5-yl))methoxy]chromen-4-one] | – | No | – | No | – | – |
| O=c1c(-c2ccc(O)cc2)coc2cc(OCc3nc(-c4cccc(C(F)(F)F)c4)no3)ccc12 [PT-115, 3-(4-hydroxyphenyl)-7-({3-[3-(trifluoromethyl)phenyl](1,2,4-oxadiazol-5-yl)}methoxy)chromen-4-one] | – | No | – | No | – | – |
| CNC(=O)c1coc(COc2ccc3c(=O)c(-c4ccc(O)cc4)coc3c2)n1 [PT-118, (2-{[3-(4-hydroxyphenyl)-4-oxochromen-7-yloxy]methyl}(1,3-oxazol-4-yl))-N-methylcarboxamide] | – | No | – | No | – | – |
| COc1ccc2c(COc3ccc4c(=O)c(-c5ccc(O)cc5)coc4c3)cc(=O)oc2c1 [PT-119, 4-{[3-(4-hydroxyphenyl)-4-oxochromen-7-yloxy]methyl}-7-methoxychromen-2-one] | – | No | – | No | – | – |
| Nc1cccc(-c2nnc(COc3ccc4c(=O)c(-c5ccc(O)cc5)coc4c3)o2)c1 [PT-121, 7-{[5-(3-aminophenyl)(1,3,4-oxadiazol-2-yl)]methoxy}-3-(4-hydroxyphenyl)chromen-4-one] | – | No | – | No | – | – |
| CCOC(=O)c1cnn(CCOc2ccc3c(=O)c(-c4ccc(O)cc4)coc3c2)c1 [PT-122, ethyl 1-{2-[3-(4-hydroxyphenyl)-4-oxochromen-7-yloxy]ethyl}pyrazole-4-carboxylate] | – | No | – | No | – | – |
